Results published in US20200325177A1, “METHODS OF MAKING STREPTOGRAMIN COMPOSITIONS AND THE USE THEREOF” (THE REGENTS OF THE UNIVERSITY OF CALIFORNIA, priority 2017, published 2020).
≈ marks a conversion by molar mass, not a printed value. Where two headings read alike, the source gives them in different places.

How the values were obtained:
Assay type in all cases: cell-based
[1] = tested on: H. influenzae ATCC 49247; assay: MIC, Gram-negative bacteria: H. influenzae ATCC 49247; conditions: Haemophilus influenzae, ATCC49247, read-out: Minimal Inhibitory Concentration (MIC) H. influenzae ATCC 49247
[2] = tested on: P. aeruginosa MDR clinical isolate; assay: MIC, Gram-negative bacteria: P. aeruginosa MDR clinical isolate; conditions: Pseudomonas aeruginosa, read-out: Minimal Inhibitory Concentration (MIC) P. aeruginosa MDR clinical isolate
[3] = tested on: S. aureus; assay: MIC, Gram-positive bacteria: S. aureus (strains not named); conditions: Staphylococcus aureus, read-out: Minimal Inhibitory Concentration (MIC) S. aureus
[4] = tested on: P. aeruginosa ATCC 27853; assay: MIC, Gram-negative bacteria: P. aeruginosa ATCC 27853; conditions: Pseudomonas aeruginosa, ATCC27853, read-out: Minimal Inhibitory Concentration (MIC) P. aeruginosa ATCC 27853
[5] = tested on: E. faecium VRE; vanA; assay: MIC, Gram-positive bacteria: E. faecium VRE; vanA; conditions: Enterococcus faecium, column 3, read-out: Minimal Inhibitory Concentration (MIC) E. faecium VRE
[6] = tested on: E. faecalis; assay: MIC, Gram-positive bacteria: E. faecalis; conditions: Enterococcus faecalis, column 1, read-out: Minimal Inhibitory Concentration (MIC) E. faecalis
[7] = tested on: S. aureus Vat A streptogramin; assay: MIC, Gram-positive bacteria: S. aureus Vat A streptogramin; conditions: Staphylococcus aureus; Gram-positive; column 5; read-out: Minimal Inhibitory Concentration (MIC) S. aureus Vat A streptogramin
[8] = tested on: S. aureus Linezolid-resistant; cfr; assay: MIC, Gram-positive bacteria: S. aureus Linezolid-resistant; cfr; conditions: Staphylococcus aureus, column 9, read-out: Minimal Inhibitory Concentration (MIC) S. aureus Linezolid-resistant
[9] = tested on: E. faecium ATCC 35667; assay: MIC, Gram-positive bacteria: E. faecium ATCC 35667; conditions: Enterococcus faecium, ATCC35667, column 2, read-out: Minimal Inhibitory Concentration (MIC) E. faecium ATCC 35667
[10] = tested on: Gram-Negative Organisms; assay: microbe, parasite or virus in culture
[11] = tested on: K. pneumoniae multidrug-resistant; assay: MIC, Gram-negative bacteria: K. pneumoniae multidrug-resistant; conditions: Klebsiella pneumoniae, read-out: Minimal Inhibitory Concentration (MIC) K. pneumoniae multidrug-resistant
[12] = tested on: S. pneumoniae; assay: MIC, Gram-positive bacteria: S. pneumoniae; conditions: Streptococcus pneumoniae, column 10, read-out: Minimal Inhibitory Concentration (MIC) S. pneumoniae
[13] = first unnamed S. aureus column (c4)
[14] = fourth unnamed S. aureus column (c8)
[15] = second unnamed S. aureus column (c6)
[16] = third unnamed S. aureus column (c7)
[17] = Acinetobacter baumannii, ATCC19606, read-out: Minimal Inhibitory Concentration (MIC), A. baumannii ATCC 19606
[18] = Escherichia coli, ATCC25922, read-out: Minimal Inhibitory Concentration (MIC), E. coli ATCC 25922
[19] = Escherichia coli, read-out: Minimal Inhibitory Concentration (MIC), E. coli BAS2006, OMP C, OMP F
[20] = Escherichia coli, read-out: Minimal Inhibitory Concentration (MIC), E. coli olC efflux defective
[21] = Escherichia coli, read-out: Minimal Inhibitory Concentration (MIC), E. coli permeability mutant BAS1314, IMP4213ZAB::TN10
[22] = Klebsiella pneumoniae, ATCC43816, read-out: Minimal Inhibitory Concentration (MIC), K. pneumoniae ATCC 43816
[23] = Escherichia coli, read-out: Minimal Inhibitory Concentration (MIC), E. coli ΔompC768, KanR insert

**Q.** Which MIC [1] does the source give for `CC1=C\[C@@H](O)C[C@@H](O)Cc2nc(co2)C(=O)N[C@H](C)C(=O)O[C@H](C(C)C)[C@H](C)/C=C/C(=O)NC\C=C\1` [madumycin II, Madumycin II, reference compound] here?
**A.** 1 µg/mL (≈ 1.99 µM)

**Q.** What about the MIC [2] of the same molecule?
**A.** > 64 µg/mL

**Q.** What about the MIC [3, 13] of the same molecule?
**A.** 8 µg/mL (≈ 15.9 µM)

**Q.** And the MIC [3, 14]?
**A.** 8 µg/mL (≈ 15.9 µM)

**Q.** And the MIC [3, 15]?
**A.** 8 µg/mL (≈ 15.9 µM)

**Q.** And the MIC [3, 16]?
**A.** 16 µg/mL (≈ 31.8 µM)

**Q.** And the MIC [4]?
**A.** > 64 µg/mL

**Q.** What about the MIC [5] of the same molecule?
**A.** 8 µg/mL (≈ 15.9 µM)

**Q.** What about the MIC [6] of the same molecule?
**A.** > 64 µg/mL

**Q.** And the MIC [7]?
**A.** > 64 µg/mL

**Q.** What about the MIC [8] of the same molecule?
**A.** > 64 µg/mL

**Q.** And the MIC [9]?
**A.** 0.5 µg/mL (≈ 0.993 µM)

**Q.** What about the MIC [10, 17] of the same molecule?
**A.** > 64 µg/mL

**Q.** What about the MIC [10, 18] of the same molecule?
**A.** > 64 µg/mL

**Q.** And the MIC [10, 19]?
**A.** 1 µg/mL (≈ 1.99 µM)

**Q.** What about the MIC [10, 20] of the same molecule?
**A.** 2 µg/mL (≈ 3.97 µM)

**Q.** What about the MIC [10, 21] of the same molecule?
**A.** 0.5 µg/mL (≈ 0.993 µM)

**Q.** And the MIC [10, 22]?
**A.** > 64 µg/mL

**Q.** And the MIC [11]?
**A.** > 64 µg/mL

**Q.** What about the MIC [12] of the same molecule?
**A.** 4 µg/mL (≈ 7.94 µM)

**Q.** What does the source list for `CC1=C\[C@@H](O)CC(=O)Cc2nc(co2)C(=O)N2CCC[C@@H]2C(=O)O[C@H]([C@H](C)COC(=O)Nc2cnccn2)[C@H](C)/C=C/C(=O)NC\C=C\1` [SA0110215]?
**A.** MIC [1]: 16 µg/mL (≈ 24.1 µM); MIC [2]: > 64 µg/mL; MIC [3, 13]: > 64 µg/mL; MIC [3, 14]: > 64 µg/mL; MIC [3, 15]: > 64 µg/mL; MIC [3, 16]: > 64 µg/mL; MIC [4]: > 64 µg/mL; MIC [5]: > 64 µg/mL; MIC [6]: > 64 µg/mL; MIC [7]: > 64 µg/mL; MIC [8]: > 64 µg/mL; MIC [9]: 64 µg/mL (≈ 96.3 µM); MIC [10, 17]: > 64 µg/mL; MIC [10, 18]: > 64 µg/mL; MIC [10, 19]: > 64 µg/mL; MIC [10, 20]: 8 µg/mL (≈ 12 µM); MIC [10, 21]: 16 µg/mL (≈ 24.1 µM); MIC [10, 23]: > 64 µg/mL; MIC [10, 22]: > 64 µg/mL; MIC [11]: > 64 µg/mL; MIC [12]: 64 µg/mL (≈ 96.3 µM)

**Q.** With `CC1=C\[C@@H](O)CC(=O)Cc2nc(co2)C(=O)N2CCC[C@@H]2C(=O)O[C@H]([C@H](C)COC(=O)Nc2cccnc2)[C@H](C)/C=C/C(=O)NC\C=C\1` [SA0110205] as the molecule, how does the MIC [1] read?
**A.** 32 µg/mL (≈ 48.2 µM)

**Q.** And the MIC [2]?
**A.** > 64 µg/mL

**Q.** And the MIC [3, 13]?
**A.** > 64 µg/mL

**Q.** What about the MIC [3, 14] of the same molecule?
**A.** > 64 µg/mL

**Q.** What about the MIC [3, 15] of the same molecule?
**A.** > 64 µg/mL

**Q.** And the MIC [3, 16]?
**A.** > 64 µg/mL

**Q.** And the MIC [4]?
**A.** > 64 µg/mL

**Q.** And the MIC [5]?
**A.** 64 µg/mL (≈ 96.4 µM)

**Q.** And the MIC [6]?
**A.** > 64 µg/mL

**Q.** And the MIC [7]?
**A.** > 64 µg/mL

**Q.** What about the MIC [8] of the same molecule?
**A.** > 64 µg/mL

**Q.** What about the MIC [9] of the same molecule?
**A.** 32 µg/mL (≈ 48.2 µM)

**Q.** What about the MIC [10, 17] of the same molecule?
**A.** > 64 µg/mL

**Q.** What about the MIC [10, 18] of the same molecule?
**A.** > 64 µg/mL

**Q.** And the MIC [10, 19]?
**A.** > 64 µg/mL

**Q.** And the MIC [10, 20]?
**A.** 8 µg/mL (≈ 12.1 µM)

**Q.** And the MIC [10, 21]?
**A.** 16 µg/mL (≈ 24.1 µM)

**Q.** And the MIC [10, 23]?
**A.** > 64 µg/mL

**Q.** And the MIC [10, 22]?
**A.** > 64 µg/mL

**Q.** What about the MIC [11] of the same molecule?
**A.** > 64 µg/mL

**Q.** What about the MIC [12] of the same molecule?
**A.** 32 µg/mL (≈ 48.2 µM)

**Q.** How did the MIC [1] turn out when `CC(C)[C@H]1OC(=O)[C@H]2CCCN2C(=O)c2coc(n2)CC(=O)C[C@H](O)/C=C/C=C/CNC(=O)/C=C/[C@H]1C` [SA0110239] was run?
**A.** > 64 µg/mL

**Q.** And the MIC [2]?
**A.** > 64 µg/mL

**Q.** And the MIC [3, 13]?
**A.** > 64 µg/mL

**Q.** What about the MIC [3, 14] of the same molecule?
**A.** > 64 µg/mL

**Q.** And the MIC [3, 15]?
**A.** > 64 µg/mL

**Q.** And the MIC [3, 16]?
**A.** > 64 µg/mL

**Q.** What about the MIC [4] of the same molecule?
**A.** > 64 µg/mL

**Q.** And the MIC [5]?
**A.** > 64 µg/mL

**Q.** And the MIC [6]?
**A.** > 64 µg/mL

**Q.** What about the MIC [7] of the same molecule?
**A.** > 64 µg/mL

**Q.** What about the MIC [8] of the same molecule?
**A.** > 64 µg/mL

**Q.** What about the MIC [9] of the same molecule?
**A.** > 64 µg/mL

**Q.** What about the MIC [10, 17] of the same molecule?
**A.** > 64 µg/mL

**Q.** And the MIC [10, 18]?
**A.** > 64 µg/mL

**Q.** What about the MIC [10, 19] of the same molecule?
**A.** 64 µg/mL (≈ 125 µM)

**Q.** And the MIC [10, 20]?
**A.** 8 µg/mL (≈ 15.6 µM)

**Q.** What about the MIC [10, 21] of the same molecule?
**A.** 8 µg/mL (≈ 15.6 µM)

**Q.** What about the MIC [10, 23] of the same molecule?
**A.** > 64 µg/mL

**Q.** And the MIC [10, 22]?
**A.** > 64 µg/mL

**Q.** What about the MIC [11] of the same molecule?
**A.** > 64 µg/mL

**Q.** What about the MIC [12] of the same molecule?
**A.** 64 µg/mL (≈ 125 µM)

**Q.** Which MIC [1] does the source give for `CC1=C\[C@@H](O)CC(=O)Cc2nc(co2)C(=O)N[C@H](C)C(=O)O[C@H](C(C)C)[C@H](C)/C=C/C(=O)NC\C=C\1` [madumycin I, Madumycin I, reference compound] here?
**A.** 8 µg/mL (≈ 15.9 µM)

**Q.** What about the MIC [2] of the same molecule?
**A.** > 64 µg/mL

**Q.** What about the MIC [3, 13] of the same molecule?
**A.** 8 µg/mL (≈ 15.9 µM)

**Q.** And the MIC [3, 14]?
**A.** 4 µg/mL (≈ 7.97 µM)

**Q.** What about the MIC [3, 15] of the same molecule?
**A.** 8 µg/mL (≈ 15.9 µM)

**Q.** And the MIC [3, 16]?
**A.** 8 µg/mL (≈ 15.9 µM)

**Q.** And the MIC [4]?
**A.** > 64 µg/mL

**Q.** And the MIC [5]?
**A.** 4 µg/mL (≈ 7.97 µM)

**Q.** What about the MIC [6] of the same molecule?
**A.** 32 µg/mL (≈ 63.8 µM)

**Q.** And the MIC [7]?
**A.** 64 µg/mL (≈ 128 µM)

**Q.** And the MIC [8]?
**A.** 64 µg/mL (≈ 128 µM)

**Q.** And the MIC [9]?
**A.** 2 µg/mL (≈ 3.99 µM)

**Q.** And the MIC [10, 17]?
**A.** > 64 µg/mL

**Q.** And the MIC [10, 18]?
**A.** > 64 µg/mL

**Q.** What about the MIC [10, 19] of the same molecule?
**A.** 0.5 µg/mL (≈ 0.997 µM)

**Q.** And the MIC [10, 20]?
**A.** 2 µg/mL (≈ 3.99 µM)

**Q.** And the MIC [10, 21]?
**A.** 0.25 µg/mL (≈ 0.498 µM)

**Q.** What about the MIC [10, 22] of the same molecule?
**A.** > 64 µg/mL

**Q.** And the MIC [11]?
**A.** > 64 µg/mL

**Q.** What about the MIC [12] of the same molecule?
**A.** 4 µg/mL (≈ 7.97 µM)
